According to patent US11090304B2 (Amgen Inc., priority 2018, dated 2021):
Like-named read-outs stand apart in the source and are kept apart here.

Experiments:
[1] = target: GDP-bound KRAS protein (aa 1-169), containing both G12C and C118A amino acid substitutions (Homo sapiens, UniProt P01116, C118A/G12C); experiment: Coupled nucleotide exchange assay (SOS-mediated, AlphaScreen); type: biochemical; details: 5 min compound pre-incubation
[2] = system: Phosphorylation of ERK1/2 in MIA PaCa-2 cells; experiment: Phospho-ERK1/2 MSD assay in MIA PaCa-2 cells; type: cell-based; details: read-out: p-ERK IC50 (2 h; MIA PaCa-2), 2 h compound treatment
Procedure: For compounds in Table 89, the following assay conditions were employed:
Phospho-ERK1/2 MSD Assay:
Sixteen hours prior to compound treatment, MIA PaCa-2 or A549 cells were seeded in 96-well cell culture plates at a density of 25,000 cells/well and incubated at 37° C., 5% CO2. A compound dose-response titration was diluted in growth media, added to appropriate wells of a cell culture plate, and then incubated at 37° C., 5% CO2 for 2 or 4 hours (see Table 15). Following compound treatment, cells were stimulated with 10 ng/mL EGF (Roche 11376454001) for 10 min, washed with ice-cold Dulbecco's phosphate-buffered saline, no Ca^2+ or Mg^2+ (ThermoFisher Scientific 14190144), and then lysed in RIPA buffer (50 mM Tris-HCl pH 7.5, 1% Igepal, 0.5% sodium deoxycholate, 150 mM NaCl, and 0.5% sodium dodecyl sulfate) containing protease inhibitors (Roche 4693132001) and phosphatase inhibitors (Roche 4906837001). Phosphorylation of ERK1/2 in compound-treated lysates was assayed using Phospho-ERK1/2 Whole Cell Lysate kits (Meso Scale Discovery K151DWD) according to the manufacturer's protocol. Assay plates were read on a Meso Scale Discovery Sector Imager 6000, and data were analyzed using a 4-parameter logistic model to calculate IC50 values.

Sequence of GDP-bound KRAS protein (aa 1-169), containing both G12C and C118A amino acid substitutions (P01116 1-169 isoform P01116-2 G12C/C118A): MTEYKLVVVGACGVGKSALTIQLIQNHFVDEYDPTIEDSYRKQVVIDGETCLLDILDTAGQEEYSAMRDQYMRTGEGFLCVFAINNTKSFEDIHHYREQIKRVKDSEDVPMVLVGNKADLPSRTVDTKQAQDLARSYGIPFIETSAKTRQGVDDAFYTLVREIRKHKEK

SMILES	Coupled exchange IC50 (5 min) [1]	IC50 ([2]; Homo sapiens, MIA PaCa-2, 2 h) [nM]	IC50 [2] [nM]	IC50 ([1]; read-out: Coupled exchange IC50 (5 min)) [nM]
C=CC(=O)N1CCN(c2nc(=O)n(-c3c(C)cccc3C(C)C)c3nc(-c4c(O)cccc4Cl)c(F)cc23)[C@@H](C)C1 [Example 68-1, 7-(2-Chloro-6-hydroxyphenyl)-6-fluoro-1-(2-methyl-6-(2-propanyl)phenyl)-4-((2S)-2-methyl-4-(2-propenoyl)-1-piperazinyl)pyrido[2,3-d]pyrimidin-2(1H)-one]	0.111 | nda μM	214		
C=CC(=O)N1CCN(c2nc(=O)n(-c3c(C)noc3C(C)C)c3nc(-c4c(O)cccc4F)c(Cl)cc23)[C@@H](C)C1 [Example 55-1, 6-Chloro-7-(2-fluoro-6-hydroxyphenyl)-1-(3-methyl-5-(2-propanyl)-1,2-oxazol-4-yl)-4-((2S)-2-methyl-4-(2-propenoyl)-1-piperazinyl)pyrido[2,3-d]pyrimidin-2(1H)-one]	0.124 | nda μM	226		
C=CC(=O)N1CCN(c2nc(=O)n(-c3c(C)cccc3C3CC3)c3nc(-c4ccccc4F)c(Cl)cc23)[C@@H](C)C1 (single isomer, unassigned) [Example 56-5-2]	0.668 | nda μM		823	
C=CC(=O)N1CCN(c2nc(=O)n(-c3c(C)ccnc3C(C)C)c3nc(-c4cc(C(F)(F)F)ccc4F)c(Cl)cc23)[C@@H](C)C1 (atropisomer, axis not shown; (M)) [Example 73-8, (M)-6-chloro-7-(2-fluoro-5-(trifluoromethyl)phenyl)-1-(4-methyl-2-(2-propanyl)-3-pyridinyl)-4-((2S)-2-methyl-4-(2-propenoyl)-1-piperazinyl)pyrido[2,3-d]pyrimidin-2(1H)-one]	0.236 | nda μM	653		
C=CC(=O)N1CCN(c2nc(=O)n(-c3c(C)cc(CN(C)C)cc3C(C)C)c3nc(-c4ccccc4F)c(Cl)cc23)[C@@H](C)C1 (single isomer, unassigned) [Example 80-1-2]	0.556 | nda μM		236	
Cc1ccnc(C(C)C)c1-n1c(=O)nc(N2CCN(C(=O)/C=C/CN(C)C)C[C@@H]2C)c2cc(F)c(-c3c(O)cccc3F)nc21 (atropisomer, axis not shown; (M)) [Example 145, (M)-4-((2S)-4-((2E)-4-(Dimethylamino)-2-butenoyl)-2-methyl-piperazinyl)-6-fluoro-7-(2-fluoro-6-hydroxyphenyl)-1-(4-methyl-2-(2-propanyl)-3-pyridinyl)pyrido[2,3-d]pyrimidin-2(1H)-one]			3920	952
C=CC(=O)N1CCN(c2nc(=O)n(-c3ccnn3C3CCC3)c3nc(-c4ccccc4F)c(Cl)cc23)[C@@H](C)C1 [Example 54-29, 6-chloro-1-(1-cyclobutyl-1H-pyrazol-5-yl)-7-(2-fluorophenyl)-4-((2S)-2-methyl-4-(2-propenoyl)-1-piperazinyl) pyrido[2,3-d]pyrimidin-2(1H)-one]	0.406 | nda μM	717		
C=CC(=O)N1CCN(c2nc(=O)n(-c3ccccc3C3CCC3)c3nc(-c4ccccc4F)c(Cl)cc23)[C@@H](C)C1 (single isomer, unassigned) [Example 54-12-2]	0.949 | nda μM		689	
C=CC(=O)N1CCN(c2nc(=O)n(-c3c(C(C)C)ccnc3C)c3nc(-c4ccccc4F)c(Cl)cc23)[C@@H](C)C1 (single isomer, unassigned) [Example 54-18-2]	0.729 | nda μM		643	
C=CC(=O)N1CCN(c2nc(=O)n(-c3c(C)ccnc3C(C)C)c3nc(-c4c(O)cccc4F)c(C)cc23)[C@@H](C)C1 (single isomer, unassigned) [Example 74-3-1]	0.05 | nda μM	103		
C=CC(=O)N1CCN(c2nc(=O)n(-c3c(C)cnn3C(C)C)c3nc(-c4ccc(F)cc4F)c(Cl)cc23)[C@@H](C)C1 [Example 54-71, 6-chloro-7-(2,4-difluorophenyl)-1-(4-methyl-1-(2-propanyl)-1H-pyrazol-5-yl)-4-((2S)-2-methyl-4-(2-propenoyl)-1-piperazinyl) pyrido[2,3-d]pyrimidin-2(1H)-one]	0.174 | nda μM	164		
C=CC(=O)N1CCN(c2nc(=O)n(-c3ccccc3C3(C)CC3)c3nc(-c4ccccc4F)c(Cl)cc23)[C@@H](C)C1 [Example 54-99, 6-chloro-7-(2-fluorophenyl)-1-(2-(1-methylcyclopropyl)phenyl)-4-((2S)-2-methyl-4-(2-propenoyl)-1-piperazinyl) pyrido[2,3-d]pyrimidin-2(1H)-one]	0.153 | nda μM	294		
C=CC(=O)N1CCN(c2nc(=O)n(-c3c(Cl)ncnc3C(C)C)c3nc(-c4ccccc4F)c(Cl)cc23)[C@@H](C)C1 [Example 133, 6-Chloro-1-(4-chloro-6-(2-propanyl)-5-pyrimidinyl)-7-(2-fluorophenyl)-4-((2S)-2-methyl-4-(2-propenoyl)-1-piperazinyl)pyrido[2,3-d]pyrimidin-2(1H)-one]	0.119 | nda μM	198		
C=CC(=O)N1CCN(c2nc(=O)n(-c3c(C)cccc3C(C)C)c3nc(-c4nc(N)ccc4Cl)c(F)cc23)[C@@H](C)C1 (single isomer, unassigned) [Example 71-1-1]	0.49 | nda μM	725		
C=CC(=O)N1CCN(c2nc(=O)n(-c3c(N)cccc3C(C)C)c3nc(-c4ccccc4F)c(Cl)cc23)[C@@H](C)C1 (single isomer, unassigned) [Example 155-1]	0.038 | nda μM	43		
C=CC(=O)N1CCN(c2nc(=O)n(-c3c(C(C)C)ncnc3N(C)C)c3nc(-c4ccccc4F)c(Cl)cc23)[C@@H](C)C1 (single isomer, unassigned) [Example 140-1]	0.073 | nda μM	47		
C=CC(=O)N1CCN(c2nc(=O)n(-c3c(N)cccc3C(C)C)c3nc(-c4ccccc4F)c(Cl)cc23)[C@@H](C)C1 [Example 155, 1-(2-Amino-6-(2-propanyl)phenyl)-6-chloro-7-(2-fluorophenyl)-4-((2S)-2-methyl-4-(2-propenoyl)-1-piperazinyl)pyrido[2,3-d]pyrimidin-2(1H)-one]	0.108 | nda μM	103		
C=CC(=O)N1CCN(c2nc(=O)n(-c3ccccc3C(C)C)c3nc(-c4c(F)cccc4C#N)c(Cl)cc23)[C@@H](C)C1 [Example 98, 2-(6-Chloro-4-((2S)-2-methyl-4-(2-propenoyl)-1-piperazinyl)-2-oxo-1-(2-(2-propanyl)phenyl)-1,2-dihydropyrido[2,3-d]pyrimidin-7-yl)-3-fluorobenzonitrile]	0.27 | nda μM	207		
C=CC(=O)N1CCN(c2nc(=O)n(-c3ccccc3S(F)(F)(F)(F)F)c3nc(-c4c(O)cccc4F)c(Cl)cc23)[C@@H](C)C1 [Example 56-1, 6-Chloro-7-(2-fluoro-6-hydroxy-phenyl)-4-[(2S)-2-methyl-4-prop-2-enoyl-piperazin-1-yl]-1-[2-(pentafluoro-λ^6-sulfanyl)phenyl]pyrido[2,3-d]pyrimidin-2-one]	0.149 | nda μM	359		
C=CC(=O)N1CCN(c2nc(=O)n(-c3c(C)ccnc3C(C)C)c3nc(-c4cc(O)ccc4F)c(F)cc23)[C@@H](C)C1 [Example 58-5, 6-fluoro-7-(2-fluoro-5-hydroxyphenyl)-1-(4-methyl-2-(2-propanyl)-3-pyridinyl)-4-((2S)-2-methyl-4-(2-propenoyl)-1-piperazinyl)pyrido[2,3-d]pyrimidin-2(1H)-one]	0.484 | nda μM	1990		
C=CC(=O)N1CCN(c2nc(=O)n(-c3c(C)ccnc3C(C)C)c3nc(-c4ccccc4F)c(Cl)nc23)[C@@H](C)C1 [Example 111, 6-Chloro-7-(2-fluorophenyl)-1-(4-methyl-2-(2-propanyl)-3-pyridinyl)-4-((2S)-2-methyl-4-(2-propenoyl)-1-piperazinyl)-2(1H)-pteridinone]	0.174 | nda μM	195		
C=CC(=O)N1C[C@@H](C)N(c2nc(=O)n(-c3c(C)ccnc3C(C)C)c3nc(-c4c(N)cccc4F)c(Cl)cc23)[C@@H](C)C1 (atropisomer, axis not shown; (M)) [Example 73-12, (M)-7-(2-amino-6-fluorophenyl)-6-chloro-4-(cis-2,6-dimethyl-4-(2-propenoyl)-1-piperazinyl)-1-(4-methyl-2-(2-propanyl)-3-pyridinyl)pyrido[2,3-d]pyrimidin-2(1H)-one]	0.01 | nda μM	10		
C=CC(=O)N1CCN(c2nc(=O)n(-c3ncccc3CC)c3nc(-c4ccccc4F)c(Cl)cc23)[C@@H](C)C1 [Example 54-15, 6-chloro-1-(3-ethyl-2~ pyridinyl)-7-(2-fluorophenyl)-4-((2S)-2-methyl-4-(2-propenoyl)-1-piperazinyl) pyrido[2,3-d]pyrimidin-2(1H)-one]	0.564 | nda μM	347		
